{"source": "PubChem BioAssay (NCI)", "test_in_all_cases": "inhibition of tumour cell growth, NCI panel, 48 h", "key": {"A498 renal": {"system": "A498 renal"}, "HOP-62 NSCLC": {"system": "HOP-62 NSCLC"}, "K-562 leukemia": {"system": "K-562 leukemia"}, "SR leukemia": {"system": "SR leukemia"}, "MDA-MB-231 breast": {"system": "MDA-MB-231 breast"}, "DU-145 prostate": {"system": "DU-145 prostate"}, "SK-MEL-2 melanoma": {"system": "SK-MEL-2 melanoma"}, "HCT-116 colon": {"system": "HCT-116 colon"}, "SK-MEL-28 melanoma": {"system": "SK-MEL-28 melanoma"}, "NCI-H522 lung": {"system": "NCI-H522 lung"}, "786-0 renal": {"system": "786-0 renal"}, "UO-31 renal": {"system": "UO-31 renal"}, "LOX IMVI melanoma": {"system": "LOX IMVI melanoma"}, "HOP-92 NSCLC": {"system": "HOP-92 NSCLC"}, "NCI-H23 lung": {"system": "NCI-H23 lung"}, "SK-OV-3 ovarian": {"system": "SK-OV-3 ovarian"}, "MDA-MB-435": {"system": "MDA-MB-435"}, "RPMI-8226 leukemia": {"system": "RPMI-8226 leukemia"}, "NCI/ADR-RES ovarian": {"system": "NCI/ADR-RES ovarian"}, "HS 578T breast": {"system": "HS 578T breast"}, "SN12C renal": {"system": "SN12C renal"}, "M14 melanoma": {"system": "M14 melanoma"}, "HCT-15 colon": {"system": "HCT-15 colon"}, "SW-620 colon": {"system": "SW-620 colon"}, "MCF7 breast": {"system": "MCF7 breast"}, "KM12 colon": {"system": "KM12 colon"}, "SNB-75 CNS": {"system": "SNB-75 CNS"}, "HL-60(TB) leukemia": {"system": "HL-60(TB) leukemia"}, "NCI-H226 lung": {"system": "NCI-H226 lung"}, "UACC-62 melanoma": {"system": "UACC-62 melanoma"}, "NCI-H460 lung": {"system": "NCI-H460 lung"}, "ACHN renal": {"system": "ACHN renal"}, "UACC-257 melanoma": {"system": "UACC-257 melanoma"}, "COLO 205 colon": {"system": "COLO 205 colon"}, "TK-10 renal": {"system": "TK-10 renal"}, "HT29 colon": {"system": "HT29 colon"}, "SF-295 CNS": {"system": "SF-295 CNS"}, "MOLT-4 leukemia": {"system": "MOLT-4 leukemia"}, "OVCAR-5 ovarian": {"system": "OVCAR-5 ovarian"}, "SK-MEL-5 melanoma": {"system": "SK-MEL-5 melanoma"}, "PC-3 prostate": {"system": "PC-3 prostate"}, "MALME-3M melanoma": {"system": "MALME-3M melanoma"}, "T-47D breast": {"system": "T-47D breast"}, "HCC-2998 colon": {"system": "HCC-2998 colon"}, "SF-268 CNS": {"system": "SF-268 CNS"}, "OVCAR-4 ovarian": {"system": "OVCAR-4 ovarian"}, "CCRF-CEM leukemia": {"system": "CCRF-CEM leukemia"}, "SNB-19 CNS": {"system": "SNB-19 CNS"}, "IGROV1 ovarian": {"system": "IGROV1 ovarian"}, "OVCAR-3 ovarian": {"system": "OVCAR-3 ovarian"}, "RXF 393 renal": {"system": "RXF 393 renal"}, "U251 CNS": {"system": "U251 CNS"}, "CAKI-1 renal": {"system": "CAKI-1 renal"}, "A549 NSCLC": {"system": "A549 NSCLC"}, "EKVX NSCLC": {"system": "EKVX NSCLC"}, "SF-539 CNS": {"system": "SF-539 CNS"}, "OVCAR-8 ovarian": {"system": "OVCAR-8 ovarian"}}, "note": "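Each compound was tested at five concentrations against cells in 96-well plates for 48 hours. At the TGI there is no net growth.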"}
{"smiles": "CC(=O)c1sc2c(c1OC(=O)c1ccc(Cl)cc1)c(=O)n(-c1ccccc1)c(=S)n2-c1ccccc1", "values": [{"measurement": "TGI", "setting": "A498 renal", "result": 3.64, "unit": "µM"}, {"measurement": "TGI", "setting": "HOP-62 NSCLC", "result": 24.1, "unit": "µM"}, {"measurement": "TGI", "setting": "K-562 leukemia", "result": 38.4, "unit": "µM"}, {"measurement": "TGI", "setting": "SR leukemia", "result": 23.1, "unit": "µM"}, {"measurement": "TGI", "setting": "MDA-MB-231 breast", "result": 19.2, "unit": "µM"}, {"measurement": "TGI", "setting": "DU-145 prostate", "result": "> 100", "unit": "µM"}, {"measurement": "TGI", "setting": "SK-MEL-2 melanoma", "result": 3.7, "unit": "µM"}, {"measurement": "TGI", "setting": "HCT-116 colon", "result": 25.2, "unit": "µM"}, {"measurement": "TGI", "setting": "SK-MEL-28 melanoma", "result": "> 31.8", "unit": "µM"}, {"measurement": "TGI", "setting": "NCI-H522 lung", "result": 18.9, "unit": "µM"}, {"measurement": "TGI", "setting": "786-0 renal", "result": 15.9, "unit": "µM"}, {"measurement": "TGI", "setting": "UO-31 renal", "result": 9.24, "unit": "µM"}, {"measurement": "TGI", "setting": "LOX IMVI melanoma", "result": 6.92, "unit": "µM"}, {"measurement": "TGI", "setting": "HOP-92 NSCLC", "result": 15.8, "unit": "µM"}, {"measurement": "TGI", "setting": "NCI-H23 lung", "result": "> 68.6", "unit": "µM"}, {"measurement": "TGI", "setting": "SK-OV-3 ovarian", "result": 7.03, "unit": "µM"}, {"measurement": "TGI", "setting": "MDA-MB-435", "result": "> 36.8", "unit": "µM"}, {"measurement": "TGI", "setting": "RPMI-8226 leukemia", "result": 8.56, "unit": "µM"}, {"measurement": "TGI", "setting": "NCI/ADR-RES ovarian", "result": 23, "unit": "µM"}, {"measurement": "TGI", "setting": "HS 578T breast", "result": 9.72, "unit": "µM"}, {"measurement": "TGI", "setting": "SN12C renal", "result": 6.43, "unit": "µM"}, {"measurement": "TGI", "setting": "M14 melanoma", "result": 5.48, "unit": "µM"}, {"measurement": "TGI", "setting": "HCT-15 colon", "result": 25.8, "unit": "µM"}, {"measurement": "TGI", "setting": "SW-620 colon", "result": 70.7, "unit": "µM"}, {"measurement": "TGI", "setting": "MCF7 breast", "result": 71.9, "unit": "µM"}, {"measurement": "TGI", "setting": "KM12 colon", "result": 44.7, "unit": "µM"}, {"measurement": "TGI", "setting": "SNB-75 CNS", "result": 23.3, "unit": "µM"}, {"measurement": "TGI", "setting": "HL-60(TB) leukemia", "result": 30.6, "unit": "µM"}, {"measurement": "TGI", "setting": "NCI-H226 lung", "result": 5.56, "unit": "µM"}, {"measurement": "TGI", "setting": "UACC-62 melanoma", "result": 42.6, "unit": "µM"}, {"measurement": "TGI", "setting": "NCI-H460 lung", "result": 22.1, "unit": "µM"}, {"measurement": "TGI", "setting": "ACHN renal", "result": 15.7, "unit": "µM"}, {"measurement": "TGI", "setting": "UACC-257 melanoma", "result": 38.4, "unit": "µM"}, {"measurement": "TGI", "setting": "COLO 205 colon", "result": 13.8, "unit": "µM"}, {"measurement": "TGI", "setting": "TK-10 renal", "result": 87.4, "unit": "µM"}, {"measurement": "TGI", "setting": "HT29 colon", "result": 8.95, "unit": "µM"}, {"measurement": "TGI", "setting": "SF-295 CNS", "result": 5.88, "unit": "µM"}, {"measurement": "TGI", "setting": "MOLT-4 leukemia", "result": 6.68, "unit": "µM"}, {"measurement": "TGI", "setting": "OVCAR-5 ovarian", "result": 13.2, "unit": "µM"}, {"measurement": "TGI", "setting": "SK-MEL-5 melanoma", "result": 7.61, "unit": "µM"}, {"measurement": "TGI", "setting": "PC-3 prostate", "result": "> 100", "unit": "µM"}, {"measurement": "TGI", "setting": "MALME-3M melanoma", "result": 4.51, "unit": "µM"}, {"measurement": "TGI", "setting": "T-47D breast", "result": "> 69.4", "unit": "µM"}, {"measurement": "TGI", "setting": "HCC-2998 colon", "result": "> 58.3", "unit": "µM"}, {"measurement": "TGI", "setting": "SF-268 CNS", "result": "> 100", "unit": "µM"}, {"measurement": "TGI", "setting": "OVCAR-4 ovarian", "result": 65.5, "unit": "µM"}, {"measurement": "TGI", "setting": "CCRF-CEM leukemia", "result": 7.41, "unit": "µM"}, {"measurement": "TGI", "setting": "SNB-19 CNS", "result": "> 42.9", "unit": "µM"}, {"measurement": "TGI", "setting": "IGROV1 ovarian", "result": 37.8, "unit": "µM"}, {"measurement": "TGI", "setting": "OVCAR-3 ovarian", "result": 41.6, "unit": "µM"}, {"measurement": "TGI", "setting": "RXF 393 renal", "result": 5.91, "unit": "µM"}, {"measurement": "TGI", "setting": "U251 CNS", "result": 15, "unit": "µM"}, {"measurement": "TGI", "setting": "CAKI-1 renal", "result": "> 47", "unit": "µM"}, {"measurement": "TGI", "setting": "A549 NSCLC", "result": "> 76.1", "unit": "µM"}, {"measurement": "TGI", "setting": "EKVX NSCLC", "result": 77.8, "unit": "µM"}, {"measurement": "TGI", "setting": "SF-539 CNS", "result": 5.06, "unit": "µM"}, {"measurement": "TGI", "setting": "OVCAR-8 ovarian", "result": 15.1, "unit": "µM"}]}
